Measurements taken from US7022695B2, “Thioether-substituted benzamides as inhibitors of Factor Xa” (Millennium Pharmaceuticals, Inc., priority 2003, dated 2006).

Target: T1, human plasma protein factor Xa (Homo sapiens, UniProt P00742)
T1 construct: The human plasma protein factor Xa was purchased from Haematologic Technologies; purchased Haematologic Technologies (Essex Junction, Vt.); host or cells: human plasma
Experiment: Factor Xa Ki determination (cleavage of chromogenic substrate S-2765)
Format: biochemical
Conditions: fXa 1 nM, S-2765 200 μM, pH 7.4
Experimental: Protocol for Assay of Factor Xa Inhibitors
The substrate S-2765 (Z-D-Arg-Gly-Arg-pNA.HCl) was obtained from Diapharma (West Chester, Ohio).
The human plasma protein factor Xa was purchased from Haematologic Technologies (Essex Junction, Vt.).
The assay buffer for this series of assays was: Hepes buffered saline (20 mM Hepes, 150 mM NaCl, 5 mM CaCl2, 0.1% PEG-8000, pH 7.4). In a 96-well microtiter plate, inhibitor was serially diluted in a duplicate set of wells to give a range of final concentrations from 5 pM to 3 μM final. Controls without inhibitor (8 wells) were included. The enzyme, fXa (1 nM final) was added to the wells. The substrate S-2765 (200 μM final) was added and the degree of substrate hydrolysis was measured at 405 nm on a Thermomax plate reader for 5 minutes, using Softmax software. Initial velocities (mOD/min) were analyzed by non-linear least squares regression in the Plate Ki software (BioKin Ltd, Pullman, Wash.)(Literature reference: Kusmic P, et al., “High-throughput screening of enzyme inhibitors: Automatic determination of tight-binding inhibition constants” Anal. Biochemistry 2000, 281:62–67). The model used for fitting the inhibitor dose-response curves was the Morrison equation. An apparent Ki (Ki*) was determined. The overall Ki was calculated using the following equation: […]

T1 sequence (P00742 235-488 limits assumed): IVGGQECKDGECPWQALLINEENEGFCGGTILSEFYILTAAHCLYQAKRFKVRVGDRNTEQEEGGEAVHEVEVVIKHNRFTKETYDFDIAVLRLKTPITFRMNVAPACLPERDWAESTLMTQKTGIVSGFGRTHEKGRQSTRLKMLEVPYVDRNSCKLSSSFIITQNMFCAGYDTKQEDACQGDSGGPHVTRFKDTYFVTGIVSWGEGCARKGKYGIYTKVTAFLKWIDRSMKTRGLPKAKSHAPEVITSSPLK
T1 sequence (P00742 41-179 partner limits assumed): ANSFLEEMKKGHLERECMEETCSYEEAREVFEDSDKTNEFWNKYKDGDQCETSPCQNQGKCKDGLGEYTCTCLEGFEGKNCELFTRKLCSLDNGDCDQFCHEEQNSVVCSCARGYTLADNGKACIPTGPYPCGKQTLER

Ki, < 10 nM:
CN(C)C(=O)CSc1ccc(NC(=O)c2ccc(C3=NCCN3C)cc2)c(C(=O)Nc2ccc(Cl)cn2)c1 [Example 4]
CN(C)CCSc1ccc(NC(=O)c2ccc(C(=N)N(C)C)cc2)c(C(=O)Nc2ccc(Cl)cn2)c1 [Example 9]
CN(C)C(=N)c1ccc(C(=O)Nc2ccc(SCC(=O)N(C)C)cc2C(=O)Nc2ccc(Cl)cn2)cc1 [Example 1, N-(5-chloro-2-pyridinyl)-2-(4-N,N-dimethylamidinophenylcarbonyl)amino-5-acetic acid dimethylamide sulfanyl-phenylcarboxamide]
CN1CCN=C1c1ccc(C(=O)Nc2ccc(SCC(N)=O)cc2C(=O)Nc2ccc(Cl)cn2)cc1 [Example 6]
CNC(=O)CSc1ccc(NC(=O)c2ccc(C3=NCCN3C)cc2)c(C(=O)Nc2ccc(Cl)cn2)c1 [Example 7]
CN(C)C(=N)c1ccc(C(=O)Nc2ccc(SCC(=O)N3CCCCC3)cc2C(=O)Nc2ccc(Cl)cn2)cc1 [Example 2]
CN(C)C(=N)c1ccc(C(=O)Nc2ccc(SCC(=O)N3CCN(C(=O)OC(C)(C)C)CC3)cc2C(=O)Nc2ccc(Cl)cn2)cc1 [Example 3]
